Laboratory results from patent US20250152751A1, “RED-SHIFTED FLUOROPHORES AND METHODS OF USING THE SAME” (GEORGIA STATE UNIVERSITY RESEARCH FOUNDATION, INC., priority 2022, published 2025).

Tests used:
[1] = Optical properties of the fluorophores measured in ethanol, compared to ICG; type: physicochemical; details: for Φ^a (%): compared to ICG
Procedure, shortened: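 Optical properties of the fluorophores were measured in ethanol and compared with a reference dye. Read-outs were absorption maximum, emission maximum, Stokes shift, quantum yield and molar extinction coefficient. The text gives no concentrations, instrument, temperature, replicates or derivation method.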

[2] = Solvatochromism: absorption maximum in different solvents; type: physicochemical

Row | Stokes Shift (nm) [1] [nm] | λabs (nm) [1] [nm] | λem (nm) [1] [nm] | ϵ (cm^−1 M^−1) [1] | Φ^a (%) [1] [%] | λabs (nm) Acetonitrile [2] [nm] | λabs (nm) DMSO [2] [nm] | λabs (nm) Ethanol [2] [nm] | λabs (nm) Methanol [2] [nm] | Structure (SMILES)
1 | 124 | 675 | 794 | 61,000 cm^−1 M^−1 | 17.3 | 640 | 670 | 675 | 665 | CCN1C(=CC=C2CCCC(C=C(C#N)C(=O)O)=C2N2CCC(CO)CC2)C(C)(C)c2cc(Br)ccc21 [Compound 82]
2 | 19 | 790 | 809 | 152,300 cm^−1 M^−1 | 11.3 | 790 | 800 | 790 | 785 | CCN1C(=CC=C2CCCC(C=C(C#N)C#N)=C2Cl)C(C)(C)c2cc(Br)ccc21 [Compound 74]

The remaining lines, values behind:

Row | Structure (SMILES) | Stokes Shift (nm) [1] [nm] | λabs (nm) [1] [nm] | λem (nm) [1] [nm] | ϵ (cm^−1 M^−1) [1] | Φ^a (%) [1] [%] | λabs (nm) Acetonitrile [2] [nm] | λabs (nm) DMSO [2] [nm] | λabs (nm) Ethanol [2] [nm] | λabs (nm) Methanol [2] [nm]
3 | CCCCN1C(=CC=C2CCCC(C=C(C#N)C(=O)O)=C2Sc2ccncc2)C(C)(C)c2ccccc21 [Compound 78] | 15 | 800 | 815 | 166,300 cm^−1 M^−1 | 11.3 | 795 | 810 | 800 | 800
4 | CCN1C(=CC=C2CCCC(C=C(C#N)C(=O)O)=C2Sc2ccncc2)C(C)(C)c2ccccc21 [Compound 77] | 15 | 800 | 815 | 134,400 cm^−1 M^−1 | 11.5 | 790 | 810 | 800 | 795
5 | CCN1C(=CC=C2CC(C(C)(C)C)CC(C=C(C#N)C(=O)O)=C2N2CCC(CO)CC2)C(C)(C)c2ccccc21 (stereo not drawn) [Compound 84] | 124 | 660 | 784 | 75,100 cm^−1 M^−1 | 18.6 | 640 | 665 | 660 | 650
